Several values for one entry are separate records, joined by “and”; a condition that tells them apart may be missing. Equal entries are not always repeated.
Tests used:
[1] = Biodistribution in healthy male rats; format: in vivo, rats (Lewis); conditions: rat
Method: Biodistribution was studied in ten healthy male rats (Lewis, Liverpool Hospital Animal Facility) aged 6-8 weeks. Five rats were administered with ^68Ga-NODAGA-GSAO. The rats were housed singly in a cage with impervious absorbent matting and at 1 hour post administration 5 rats were sacrificed by lethal carbon dioxide overdose. Immediately post mortem, blood was sampled via cardiac puncture. Two of the 5 rats were then imaged by PET CT (GE Discovery 710). The PET CT scan comprised a CT scan (80 kVp, 20 mA, helical mode, reconstructed slice thickness of 0.625 mm) followed by a PET scan (2 bed positions, 7.5 min/bed position, 256×256 reconstruction matrix, slice thickness 3.27 mm).
All of the rats were then dissected, organs sampled and weighed and counted in a gamma counter, and the cpm value converted to MBq using a known standard. The activity in the remaining carcass was measured in a dose calibrator.
Biodistribution studies were performed in a further 5 rats at two hours following ^68Ga-NODAGA GSAO administration.
Injected activity was corrected by measuring residual activity left in the syringe after injection in a dose calibrator. To correct for any dose extravasated at the injection site the tail was harvested and the activity in the tail was subtracted from the administered activity. All calculations were decayed corrected using the injection time as the reference.
Biodistribution was expressed as % ID/g and % ID/organ. % retained activity was the sum total of all activity in all individually harvested organs as well as the activity in the remaining carcass as a percentage of the injected dose. % recovered activity was the sum total of all activity in all individually harvested organs as well as the activity in the remaining carcass and excreted activity in the impervious matting as a percentage of the injected dose.

[2] = Human radiation dosimetry estimated from rat biodistribution (OLINDA/EXM); format: in vivo, human (standard adult male); conditions: from rat data
Method: For the voiding bladder model it was assumed that patients would void 1 hour following administration.

## O=C(O)CNC(=O)[C@H](CSCC(=O)Nc1ccc([As](O)O)cc1)NC(=O)CC[C@H](NC(=O)CCC1C(=O)[O][68Ga]2[O]C(=O)CN3CCN(CCN1CC3)CC(=O)[O]2)C(=O)O (stereo partly shown) [^68Ga-NODAGA-GSAO]
[1]; 1 hour
  injected activity retained within the animal: 32.4%
  mean total recovered activity: 84.9 % of injected activity
[1]; 2 hours
  injected activity retained within the animal: 21.4%
  total recovered activity: 75.3 % of injected activity
[2]; Adrenals
  Alpha dose: 0.00E000 mSv/MBq
  Beta dose: 2.13E−03 mSv/MBq
  ED Cont.: 2.01E−05 mSv/MBq
  Total dose: 4.02E−03 mSv/MBq
[2]; Brain
  Alpha dose: 0.00E000 mSv/MBq
  Beta dose: 8.15E−04 mSv/MBq
  ED Cont.: 6.94E−06 mSv/MBq
  Total dose: 1.39E−03 mSv/MBq
[2]; Breasts
  Alpha dose: 0.00E000 mSv/MBq
  Beta dose: 2.13E−03 mSv/MBq
  ED Cont.: 1.51E−04 mSv/MBq
  Total dose: 3.02E−03 mSv/MBq
[2]; Gallbladder Wall
  Alpha dose: 0.00E000 mSv/MBq
  Beta dose: 2.13E−03 mSv/MBq
  ED Cont.: 0.00E000 mSv/MBq
  Total dose: 4.28E−03 mSv/MBq
[2]; Heart Wall
  Alpha dose: 0.00E000 mSv/MBq
  Beta dose: 3.09E−03 mSv/MBq
  ED Cont.: 0.00E000 mSv/MBq
  Photon dose: 1.55E−03 mSv/MBq
  Total dose: 4.65E−03 mSv/MBq
[2]; Kidneys
  Alpha dose: 0.00E000 mSv/MBq
  Beta dose: 2.27E−02 mSv/MBq
  ED Cont.: 1.31E−04 mSv/MBq
  Photon dose: 3.56E−03 mSv/MBq
  Total dose: 2.62E−02 mSv/MBq
[2]; LLI Wall
  Alpha dose: 0.00E000 mSv/MBq
  Beta dose: 2.13E−03 mSv/MBq
  ED Cont.: 8.67E−04 mSv/MBq
  Total dose: 7.23E−03 mSv/MBq
[2]; Liver
  Alpha dose: 0.00E000 mSv/MBq
  Beta dose: 4.76E−03 mSv/MBq
  ED Cont.: 3.40E−04 mSv/MBq
  Photon dose: 2.04E−03 mSv/MBq
  Total dose: 6.80E−03 mSv/MBq
[2]; Lungs
  Alpha dose: 0.00E000 mSv/MBq
  Beta dose: 5.42E−03 mSv/MBq
  ED Cont.: 8.16E−04 mSv/MBq
  Total dose: 6.80E−03 mSv/MBq
[2]; Muscle
  Alpha dose: 0.00E000 mSv/MBq
  ED Cont.: 2.09E−05 mSv/MBq
  Total dose: 4.18E−03 mSv/MBq
[2]; Osteogenic Cells
  Alpha dose: 0.00E000 mSv/MBq
  Beta dose: 3.31E−03 mSv/MBq
  ED Cont.: 4.98E−05 mSv/MBq
  Total dose: 4.98E−03 mSv/MBq
[2]; Ovaries
  Alpha dose: 0.00E000 mSv/MBq
  Beta dose: 2.13E−03 mSv/MBq
  ED Cont.: 1.40E−03 mSv/MBq
  Total dose: 7.02E−03 mSv/MBq
[2]; Pancreas
  Alpha dose: 0.00E000 mSv/MBq
  Beta dose: 3.87E−03 mSv/MBq
  ED Cont.: 2.95E−05 mSv/MBq
  Total dose: 5.90E−03 mSv/MBq
[2]; Red Marrow
  Alpha dose: 0.00E000 mSv/MBq
  Beta dose: 1.49E−03 mSv/MBq
  ED Cont.: 4.05E−04 mSv/MBq
  Total dose: 3.38E−03 mSv/MBq
[2]; Skin
  Alpha dose: 0.00E000 mSv/MBq
  Beta dose: 2.13E−03 mSv/MBq
  ED Cont.: 3.19E−05 mSv/MBq
  Total dose: 3.19E−03 mSv/MBq
[2]; Small Intestine
  Alpha dose: 0.00E000 mSv/MBq
  Beta dose: 5.18E−03 mSv/MBq
  ED Cont.: 4.10E−05 mSv/MBq
  Photon dose: 3.03E−03 mSv/MBq
  Total dose: 8.21E−03 mSv/MBq
[2]; Spleen
  Alpha dose: 0.00E000 mSv/MBq
  Beta dose: 4.05E−03 mSv/MBq
  ED Cont.: 2.95E−05 mSv/MBq
  Total dose: 5.91E−03 mSv/MBq
[2]; Stomach Wall
  Alpha dose: 0.00E000 mSv/MBq
  Beta dose: 2.61E−03 mSv/MBq
  ED Cont.: 5.06E−04 mSv/MBq
  Photon dose: 1.61E−03 mSv/MBq
  Total dose: 4.22E−03 mSv/MBq
[2]; Testes
  Alpha dose: 0.00E000 mSv/MBq
  Beta dose: 2.21E−03 mSv/MBq
  ED Cont.: 0.00E000 mSv/MBq
  Total dose: 5.69E−03 mSv/MBq
[2]; Thymus
  Alpha dose: 0.00E000 mSv/MBq
  Beta dose: 4.48E−03 mSv/MBq
  ED Cont.: 2.92E−05 mSv/MBq
  Total dose: 5.84E−03 mSv/MBq
[2]; Thyroid
  Alpha dose: 0.00E000 mSv/MBq
  Beta dose: 2.13E−03 mSv/MBq
  ED Cont.: 1.64E−04 mSv/MBq
  Total dose: 3.28E−03 mSv/MBq
[2]; Total Body
  Alpha dose: 0.00E000 mSv/MBq
  Beta dose: 2.68E−03 mSv/MBq
  ED Cont.: 0.00E000 mSv/MBq
  Total dose: 4.61E−03 mSv/MBq
[2]; ULI Wall
  Alpha dose: 0.00E000 mSv/MBq
  Beta dose: 2.53E−03 mSv/MBq
  ED Cont.: 2.58E−05 mSv/MBq
  Photon dose: 2.63E−03 mSv/MBq
  Total dose: 5.18E−03 mSv/MBq
[2]; Urinary Bladder Wall
  Alpha dose: 0.00E000 mSv/MBq
  Beta dose: 2.84E−01 mSv/MBq
  ED Cont.: 1.62E−02 mSv/MBq
  Total dose: 3.24E−01 mSv/MBq
[2]; Uterus
  Alpha dose: 0.00E000 mSv/MBq
  Beta dose: 2.13E−03 mSv/MBq
  ED Cont.: 5.77E−05 mSv/MBq
  Total dose: 1.15E−02 mSv/MBq
[2]
  dose to urinary bladder wall (dose limiting organ): 0.32 mSv/MBq
  whole body effective dose: 2.13E-02 mSv/MBq and 0.021 mSv/MBq
[2]; injected activity 150 MBq
  whole body effective dose: 3.2 mSv

From patent US20250269072A1, “PROCESSES FOR PREPARING RADIOLABELLED CONJUGATES” (CENTENARY INSTITUTE OF CANCER MEDICINE AND CELL BIOLOGY, priority 2021, published 2025)
